Test results published in paper PMC9821906, “Synthesis of New Triazole-Based Thiosemicarbazone Derivatives as Anti-Alzheimer’s Disease Candidates: Evidence-Based In Vitro Study” (Molecules, 2022).

Tests used:
[1] = target: butyrylcholinesterase (BuChE) (Homo sapiens, UniProt P06276); assay type: biochemical
Description: (§1) Based on previously described methods, in vitro study of AChE inhibitory profile was calculated. In order to make a stock solution, compounds being analyzed were dissolved in DMSO (1 mg/mL). In addition, the working solutions were also prepared by using serial dilution (1–100 μg/mL). The solution of AChE enzyme (20 μL; 0.1 U/mL), analogues being tested with different concentration and buffer of sodium phosphate (150 μL; pH 8.0; 0.1 M) were preincubated appropriately at 25 °C. The process was initiated as DTNB (10 mM; 10 μL) and […] (14 mM; 10 μL) were accumulated. The resulting residue was mixed (by using cyclomixer) and put on incubation for 10 min at 25 °C. Instead of compounds being tested using 10 μL DMSO, the absorbance against blank reading was calculated with a microplate reader at 410 nm.
(§2) By plotting a nonlinear graph between inhibition and concentration, IC50 was calculated using GraphPad Prism 5.3.
In order to explore the inhibition profile of in vitro BuChE enzyme, a similar procedure was adopted. For measurement of BuChE activity, the solution containing BuChE enzyme was used.

[2] = target: acetylcholinesterase (AChE) (Homo sapiens, UniProt P22303); assay type: biochemical
acetylcholinesterase (AChE), sequence (P22303 32-614, species assumed): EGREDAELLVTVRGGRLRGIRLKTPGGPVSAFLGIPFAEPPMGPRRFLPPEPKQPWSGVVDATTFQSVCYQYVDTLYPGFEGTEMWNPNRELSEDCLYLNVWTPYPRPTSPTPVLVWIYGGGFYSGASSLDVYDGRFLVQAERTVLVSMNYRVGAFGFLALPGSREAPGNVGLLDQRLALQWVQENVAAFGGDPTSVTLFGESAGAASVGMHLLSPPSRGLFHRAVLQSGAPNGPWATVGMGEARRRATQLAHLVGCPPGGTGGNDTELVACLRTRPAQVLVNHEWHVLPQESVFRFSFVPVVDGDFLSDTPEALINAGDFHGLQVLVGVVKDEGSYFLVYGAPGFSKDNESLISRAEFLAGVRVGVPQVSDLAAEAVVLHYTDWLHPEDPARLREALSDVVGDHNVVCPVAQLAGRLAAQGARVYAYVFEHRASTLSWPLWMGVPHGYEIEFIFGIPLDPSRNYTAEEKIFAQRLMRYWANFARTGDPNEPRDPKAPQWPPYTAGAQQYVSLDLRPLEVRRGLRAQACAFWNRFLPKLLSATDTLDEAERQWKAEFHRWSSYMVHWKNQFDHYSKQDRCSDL
Description: as §1, §2

butyrylcholinesterase (BuChE), sequence (P06276 29-602): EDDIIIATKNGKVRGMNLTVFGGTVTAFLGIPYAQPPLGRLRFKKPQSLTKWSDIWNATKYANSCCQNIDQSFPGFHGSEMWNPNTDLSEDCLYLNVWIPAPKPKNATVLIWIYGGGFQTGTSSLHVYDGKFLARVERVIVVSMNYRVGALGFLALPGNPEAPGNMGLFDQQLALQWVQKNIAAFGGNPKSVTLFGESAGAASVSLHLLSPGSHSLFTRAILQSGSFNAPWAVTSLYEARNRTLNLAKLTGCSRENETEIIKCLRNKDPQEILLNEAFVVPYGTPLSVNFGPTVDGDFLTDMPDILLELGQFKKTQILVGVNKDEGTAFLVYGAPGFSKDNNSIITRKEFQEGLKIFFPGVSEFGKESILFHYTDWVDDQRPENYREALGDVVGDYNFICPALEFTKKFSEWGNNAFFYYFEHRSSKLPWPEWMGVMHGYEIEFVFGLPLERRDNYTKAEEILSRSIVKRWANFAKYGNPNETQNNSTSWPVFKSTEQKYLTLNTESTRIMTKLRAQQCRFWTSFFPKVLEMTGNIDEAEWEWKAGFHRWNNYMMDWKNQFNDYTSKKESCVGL

O=[N+]([O-])c1ccc(-c2nnc(SC/C(=N/NC(=S)Nc3cc(Cl)c(Cl)cc3[N+](=O)[O-])c3ccccc3Br)[nH]2)cc1 [6a, (.E)-2-(1-(2-bromophenyl)-2-((5-(4-nitrophenyl)-4H-1,2,4-triazol-3-yl)thio)ethylidene)-N-(4,5-dichloro-2-nitrophenyl)hydrazine-1-carbothioamide]
IC50 [1]: 3.9 ± 0.1 µM | IC50 [2]: 2.2 ± 0.1 µM | Selectivity Index [2]: 1.77

O=[N+]([O-])c1ccc(-c2nnc(SC/C(=N/NC(=S)Nc3ccccc3)c3ccc(-c4ccccc4)cc3)[nH]2)cc1 [6c, (.E)-2-(1-([1,1′-biphenyl]-4-yl)-2-((5-(4-nitrophenyl)-4H-1,2,4-triazol-3-yl)thio)ethylidene)-N-phenylhydrazine-1-carbothioamide]
BuChE IC50 [1]: completely inactive | AChE IC50 [2]: completely inactive

Cc1ccc(-c2ccc(NC(=S)N/N=C(/CSc3nnc(-c4ccc([N+](=O)[O-])cc4)[nH]3)c3ccc(-c4ccccc4)cc3)cc2)cc1 [6d, (.E)-2-(1-([1,1′-biphenyl]-4-yl)-2-((5-(4-nitrophenyl)-4H-1,2,4-triazol-3-yl)thio)ethylidene)-N-(4′-methyl-[1,1′-biphenyl]-4-yl)hydrazine-1-carbothioamide]
BuChE IC50 [1]: completely inactive | AChE IC50 [2]: completely inactive

O=[N+]([O-])c1ccc(-c2nnc(SC/C(=N/NC(=S)Nc3cccc([N+](=O)[O-])c3)c3ccc(-c4ccccc4)cc3)[nH]2)cc1 [6e, (.E)-2-(1-([1,1′-biphenyl]-4-yl)-2-((5-(4-nitrophenyl)-4H-1,2,4-triazol-3-yl)thio)ethylidene)-N-(3-nitrophenyl)hydrazine-1-carbothioamide]
IC50 [1]: 6.3 ± 0.1 µM | IC50 [2]: 4.7 ± 0.1 µM | Selectivity Index [2]: 1.34

COc1ccc(OC)c(/C(CSc2nnc(-c3ccc([N+](=O)[O-])cc3)[nH]2)=N\NC(=S)Nc2ccc(C)cc2[N+](=O)[O-])c1 [6f, (.E)-2-(1-(2,5-dimethoxyphenyl)-2-((5-(4-nitrophenyl)-4H-1,2,4-triazol-3-yl)thio)ethylidene)-N-(4-methyl-2-nitrophenyl)hydrazine-1-carbothioamide]
IC50 [1]: 4.7 ± 0.1 µM | IC50 [2]: 2.4 ± 0.1 µM | Selectivity Index [2]: 1.96

COc1ccc(OC)c(/C(CSc2nnc(-c3ccc([N+](=O)[O-])cc3)[nH]2)=N\NC(=S)Nc2ccc([N+](=O)[O-])cc2)c1 [6g, (.E)-2-(1-(2,5-dimethoxyphenyl)-2-((5-(4-nitrophenyl)-4H-1,2,4-triazol-3-yl)thio)ethylidene)-N-(4-nitrophenyl)hydrazine-1-carbothioamide]
IC50 [1]: 4.3 ± 0.1 µM | IC50 [2]: 2.1 ± 0.1 µM | Selectivity Index [2]: 2.04

Cc1ccc(NC(=S)N/N=C(/CSc2nnc(-c3ccc([N+](=O)[O-])cc3)[nH]2)c2ccc(Br)cc2)c([N+](=O)[O-])c1 [6h, (.E)-2-(1-(4-bromophenyl)-2-((5-(4-nitrophenyl)-4H-1,2,4-triazol-3-yl)thio)ethylidene)-N-(4-methyl-2-nitrophenyl)hydrazine-1-carbothioamide]
IC50 [1]: 11.2 ± 0.3 µM | IC50 [2]: 9.1 ± 0.2 µM | Selectivity Index [2]: 1.23

CN(C)c1cc(Cl)c(NC(=S)N/N=C(/CSc2nnc(-c3ccc([N+](=O)[O-])cc3)[nH]2)c2ccc(-c3ccccc3)cc2)cc1Cl [6j, (.E)-2-(1-([1,1′-biphenyl]-4-yl)-2-((5-(4-nitrophenyl)-4H-1,2,4-triazol-3-yl)thio)ethylidene)-N-(2,5-dichloro-4-(dimethylamino)phenyl)hydrazine-1-carbothioamide]
IC50 [1]: 12.3 ± 0.3 µM | IC50 [2]: 11.3 ± 0.3 µM | Selectivity Index [2]: 1.09

Cc1ccc(-c2ccc(NC(=S)N/N=C(/CSc3nnc(-c4ccc([N+](=O)[O-])cc4)[nH]3)c3ccc(Br)cc3)cc2)cc1 [6k, (.E)-2-(1-(4-bromophenyl)-2-((5-(4-nitrophenyl)-4H-1,2,4-triazol-3-yl)thio)ethylidene)-N-(4′-methyl-[1,1′-biphenyl]-4-yl)hydrazine-1-carbothioamide]
IC50 [1]: 14.1 ± 0.4 µM | IC50 [2]: 12.2 ± 0.3 µM | Selectivity Index [2]: 1.15

Cc1ccc(/C(CSc2nnc(-c3ccc([N+](=O)[O-])cc3)[nH]2)=N\NC(=S)Nc2cc(Cl)c(Cl)cc2[N+](=O)[O-])c([N+](=O)[O-])c1 [6l, (.E)-N-(4,5-dichloro-2-nitrophenyl)-2-(1-(4-methyl-2-nitrophenyl)-2-((5-(4-nitrophenyl)-4H-1,2,4-triazol-3-yl)thio)ethylidene)hydrazine-1-carbothioamide]
IC50 [1]: 5.9 ± 0.1 µM | IC50 [2]: 4.6 ± 0.01 µM | Selectivity Index [2]: 1.28

Cc1ccc(NC(=S)N/N=C(/CSc2nnc(-c3ccc([N+](=O)[O-])cc3)[nH]2)c2ccc(Cl)c(Cl)c2)c([N+](=O)[O-])c1 [6m, (.E)-2-(1-(3,4-dichlorophenyl)-2-((5-(4-nitrophenyl)-4H-1,2,4-triazol-3-yl)thio)ethylidene)-N-(4-methyl-2-nitrophenyl)hydrazine-1-carbothioamide]
IC50 [1]: 3.8 ± 0.1 µM | IC50 [2]: 2.7 ± 0.1 µM | Selectivity Index [2]: 1.41

O=[N+]([O-])c1ccc(NC(=S)N/N=C(/CSc2nnc(-c3ccc([N+](=O)[O-])cc3)[nH]2)c2ccc(Cl)c(Cl)c2)cc1 [6n, (.E)-2-(1-(3,4-dichlorophenyl)-2-((5-(4-nitrophenyl)-4H-1,2,4-triazol-3-yl)thio)ethylidene)-N-(4-nitrophenyl)hydrazine-1-carbothioamide]
IC50 [1]: 1.7 ± 0.05 µM | IC50 [2]: 0.7 ± 0.05 µM | Selectivity Index [2]: 2.43

O=[N+]([O-])c1ccc(-c2nnc(SC/C(=N/NC(=S)Nc3ccccc3)c3ccc(Cl)c(Cl)c3)[nH]2)cc1 [6o, (.E)-2-(1-(3,4-dichlorophenyl)-2-((5-(4-nitrophenyl)-4H-1,2,4-triazol-3-yl)thio)ethylidene)-N-phenylhydrazine-1-carbothioamide]
IC50 [1]: 3.1 ± 0.4 µM | IC50 [2]: 2.5 ± 0.3 µM | Selectivity Index [2]: 1.24

Cc1ccc(-c2ccc(NC(=S)N/N=C(/CSc3nnc(-c4ccc([N+](=O)[O-])cc4)[nH]3)c3ccc(Cl)c(Cl)c3)cc2)cc1 [6p, (.E)-2-(1-(3,4-dichlorophenyl)-2-((5-(4-nitrophenyl)-4H-1,2,4-triazol-3-yl)thio)ethylidene)-N-(4′-methyl-[1,1′-biphenyl]-4-yl)hydrazine-1-carbothioamide]
IC50 [1]: 4.6 ± 0.1 µM | IC50 [2]: 3.2 ± 0.1 µM | Selectivity Index [2]: 1.44

Cc1ccc(NC(=S)N/N=C(/CSc2nnc(-c3ccc([N+](=O)[O-])cc3)[nH]2)c2ccccc2[N+](=O)[O-])c([N+](=O)[O-])c1 [6r, (.E)-N-(4-methyl-2-nitrophenyl)-2-(1-(2-nitrophenyl)-2-((5-(4-nitrophenyl)-4H-1,2,4-triazol-3-yl)thio)ethylidene)hydrazine-1-carbothioamide]
IC50 [1]: 2.2 ± 0.1 µM | IC50 [2]: 1.3 ± 0.05 µM | Selectivity Index [2]: 1.69

O=[N+]([O-])c1ccc(NC(=S)N/N=C(/CSc2nnc(-c3ccc([N+](=O)[O-])cc3)[nH]2)c2ccccc2[N+](=O)[O-])cc1 [6s, (.E)-N-(4-nitrophenyl)-2-(1-(2-nitrophenyl)-2-((5-(4-nitrophenyl)-4H-1,2,4-triazol-3-yl)thio)ethylidene)hydrazine-1-carbothioamide]
IC50 [1]: 2.3 ± 0.1 µM | IC50 [2]: 1.4 ± 0.05 µM | Selectivity Index [2]: 1.64

COc1cccc(/C(CSc2nnc(-c3ccc([N+](=O)[O-])cc3)[nH]2)=N\NC(=S)Nc2ccc(C)cc2[N+](=O)[O-])c1 [6t, (.E)-2-(1-(3-methoxyphenyl)-2-((5-(4-nitrophenyl)-4H-1,2,4-triazol-3-yl)thio)ethylidene)-N-(4-methyl-2-nitrophenyl)hydrazine-1-carbothioamide]
IC50 [1]: 2.5 ± 0.1 µM | IC50 [2]: 1.9 ± 0.1 µM | Selectivity Index [2]: 1.32

COc1cccc(/C(CSc2nnc(-c3ccc([N+](=O)[O-])cc3)[nH]2)=N\NC(=S)Nc2ccc([N+](=O)[O-])cc2)c1 [6u, (.E)-2-(1-(3-methoxyphenyl)-2-((5-(4-nitrophenyl)-4H-1,2,4-triazol-3-yl)thio)ethylidene)-N-(4-nitrophenyl)hydrazine-1-carbothioamide]
IC50 [1]: 3.7 ± 0.1 µM | IC50 [2]: 2.9 ± 0.1 µM | Selectivity Index [2]: 1.28
